“And” between values parts separate entries of the source, which are not always exact repeats. Equal entries are not always repeated. “Also recorded” adds a separate entry of the source. Where two headings read alike, the source gives them in different places.
Legend:
capsule genes of UPEC = assay: Capsule gene transcript level after probe treatment; assay type: cell-based, Escherichia coli; settings: UPEC treated with the probe
[1] = Solubility in PBS and in assay media; assay type: physicochemical
Protocol: Solubility was measured in phosphate buffered saline (PBS) at room temperature (23° C.). PBS by definition is 137 mM NaCl, 2.7 mM KCl, 10 mM sodium phosphate dibasic, 2 mM potassium phosphate monobasic and a pH of 7.4 (34). […] Solubility was also assessed in primary assay media (Luria-Bertani Broth). […] The solubility in PBS buffer is good, and only slightly less than in assay media, and, in any case, the solubility for the probe is well above its activity in the K1 and T7 assays.

[2] = Aqueous stability over 48 hours; assay type: physicochemical; settings: aqueous PBS and 50:50 aqueous PBS:acetonitrile, room temperature
Protocol: Aqueous stability for the probe was assessed using two solvent systems (100% aqueous PBS, and 50:50 aqueous PBS: acetonitrile). The probe stability was measured in aqueous PBS (no antioxidants or other protectants, DMSO concentration below 0.1%, room temperature) and the results are reported as circles in the graph in FIG. 4. The probe stability was also measured in 50:50 aqueous PBS and acetonitrile and the results are reported as squares in the graph in FIG. 4. Stability data in each case is depicted as the loss of compound with time over 48 hours with a minimum of six time points and providing the percent compound remaining after 48 hours.

UPEC = assay: Emergence of spontaneous resistance on exposure to probe; assay type: cell-based, Escherichia coli; settings: range of concentrations
Description: The probe described herein is entirely novel with the only precedent being the structurally dissimilar molecule 2-(4-phenylphenyl)benzo[g]quinoline-4-carboxylic acid that we previously described in proof-of-concept studies (33). The probe described herein is uniquely poised for development as an infection-specific prevention and treatment therapeutic that enhances natural immune clearance of an infection, namely UTI. […] However, the probe has no effect on in vitro growth and viability of UPEC in the absence of immune factors. […] Furthermore, this probe would be expected to act upon traditional antibiotic resistant strains of E. coli.

[3] = Hepatic microsome stability, mouse; assay type: in vitro ADME; settings: 37° C.
Plasma stability, human = assay type: in vitro ADME; settings: 1:1 Plasma:PBS, 37° C.
E. coli UTI89 = assay: Human serum sensitization (MTT); assay type: cell-based, Escherichia coli; settings: 50 μM compound, p=0.0067 versus control; listed as DU011
Protocol: Human serum sensitization by capsule inhibitor treatment. Overnight cultures of UTI89 were diluted 1:100 and grown with or without 50 μM compound for approximately 1.5 hrs on a shaker at 37° C. Then 25 μL of anonymous, non-identified, sterile filtered pooled human serum (purchased from Equitech Bio) was added per 100 μL of growth media. This was returned to the shaker for another 3 hrs, after which 20 μL of 5 mg/mL MTT (3-(4,5-Dimethylthiazol-2-yl)-2,5-diphenyltetrazolium bromide) was added. MTT is reduced to purple formazan by bacterial reductase enzymes, thus measuring viable bacteria. This was shaken for another 15 min at 37° C. The sample was spun to remove the growth media, followed by two washes with PBS. The formazan crystals were dissolved in 100 μL of DMSO and measured at OD570.

K1 capsule of UTI89 = assay: Secondary assay 3: orcinol assay for released K1 capsule polysaccharide; assay type: cell-based, Escherichia coli
Protocol: E. Secondary Assay 3: Orcinol Secondary Screening for Inhibitors of Bacterial Capsule Biogenesis.
Purpose: This assay was performed only on the probe candidate. […] The biochemical determination of cell-surface associated capsule was performed using UTI89 or the Delta Region I and Delta Region II capsule mutant bacterial strains.
Purpose: This assay was performed only on the probe candidate. […] The biochemical determination of cell-surface associated capsule was performed using UTI89 or the delta Region I and Region II capsule mutant bacterial strains.
Assay Description: The biochemical measurement of cell-surface associated capsule was performed. UTI89 or capsule mutants were grown in culture tubes with and without the test compound (50 μM). The cultures were centrifuged, and the cell pellets were washed in PBS and resuspended in Tris buffer, pH5. […] Released polysaccharide was harvested by separation from whole bacteria by centrifugation followed by deproteination with phenol/chloroform and precipitation with ethanol. The precipitated material was subjected to acid hydrolysis (pH 2 at 80° C. for 1 hr) and incubated with orcinol, which reacts with periodic intermediates to produce a violet color quantified at OD 570 (3) Inhibitors reducing or abrogating surface encapsulation yielded low orcinol levels similar to the capsule export and synthesis mutants (Region I and II). The positive control drug C7 (100 μM final well concentration) was used in this screen.
Endpoint Read: The samples were read at ambient temperature from the bottom for absorbance at A570 in a BioTek Quantplate reader and the degree of orcinol-reactive material was determined based on the absorbance compared to a wild-type encapsulated strain (UTI89) and a standard curve using purified sialic acid.
Orcinol assay for released capsule material. Orcinol reactivity was used as a biochemical confirmation of altered extracellular capsule after compound treatment. UTI89 or an isogenic capsule mutant was grown in 100 μM of test compound or 1% DMSO. The assay was performed as previously described. The molecule C7 (100 μM final concentration) was used as a positive control. The assay was performed 3 times with replicate samples.

[4] = Hepatic microsome stability, human; assay type: in vitro ADME; settings: 37° C.
[5] = molecular target: norepinephrine transporter (Homo sapiens, UniProt P23975); assay: LeadProfilingScreen, single target; assay type: binding; settings: Transporter, Norepinephrine (NET), hum, 10 μM
Protocol: Evaluation of off-target effects. Off target effects of lead molecules of interest were evaluated using the LeadProfilingScreen commercial assay at Eurofins Panlabs (Bothell, Wash.). Reference standards were run as an integral part of each assay to ensure the validity of the results obtained. Assay results are presented as the percent inhibition of specific binding or activity (for n=2 replicates) for the probe compound tested at a concentration of 10 μM. Details regarding the individual assays and methods are provided in Supplementary Information File 51.
DU003 & DU011 are biologically selective. DU003 and DU011 were submitted to the Eurofins Panlabs LeadProfilingScreen to assess off-target pharmacology 1421. […] In review of PubChem data, DU011 (CID23602075) is reported to have shown activity in only 21 of 467 (4.5%, as of Sep. 5, 2013) bioassays in which it was tested (assays unrelated to the current project). Per PubChem, DU003 (CID18109210) is reported to have shown activity in only 5 of 427 (1.2%, as of Sep. 5, 2013) bioassays in which it was tested (assays unrelated to the current project).

panel of 68 receptors = panel of 68 receptors (Homo sapiens, UniProt P25929); settings: Neuropeptide Y Y1, hum, 10 μM
panel of 68 receptors, sequence (P25929 whole entry): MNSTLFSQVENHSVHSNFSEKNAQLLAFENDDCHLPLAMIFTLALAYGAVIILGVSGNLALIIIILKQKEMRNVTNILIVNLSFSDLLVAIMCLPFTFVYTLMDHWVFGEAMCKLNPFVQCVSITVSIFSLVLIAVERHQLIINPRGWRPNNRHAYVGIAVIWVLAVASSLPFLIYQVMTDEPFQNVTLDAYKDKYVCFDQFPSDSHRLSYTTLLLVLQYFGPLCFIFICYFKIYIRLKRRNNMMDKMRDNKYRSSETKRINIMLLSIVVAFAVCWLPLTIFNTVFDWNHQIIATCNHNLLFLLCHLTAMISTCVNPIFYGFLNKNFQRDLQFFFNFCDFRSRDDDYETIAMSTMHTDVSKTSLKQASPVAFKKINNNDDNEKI

norepinephrine transporter, sequence (P23975 whole entry): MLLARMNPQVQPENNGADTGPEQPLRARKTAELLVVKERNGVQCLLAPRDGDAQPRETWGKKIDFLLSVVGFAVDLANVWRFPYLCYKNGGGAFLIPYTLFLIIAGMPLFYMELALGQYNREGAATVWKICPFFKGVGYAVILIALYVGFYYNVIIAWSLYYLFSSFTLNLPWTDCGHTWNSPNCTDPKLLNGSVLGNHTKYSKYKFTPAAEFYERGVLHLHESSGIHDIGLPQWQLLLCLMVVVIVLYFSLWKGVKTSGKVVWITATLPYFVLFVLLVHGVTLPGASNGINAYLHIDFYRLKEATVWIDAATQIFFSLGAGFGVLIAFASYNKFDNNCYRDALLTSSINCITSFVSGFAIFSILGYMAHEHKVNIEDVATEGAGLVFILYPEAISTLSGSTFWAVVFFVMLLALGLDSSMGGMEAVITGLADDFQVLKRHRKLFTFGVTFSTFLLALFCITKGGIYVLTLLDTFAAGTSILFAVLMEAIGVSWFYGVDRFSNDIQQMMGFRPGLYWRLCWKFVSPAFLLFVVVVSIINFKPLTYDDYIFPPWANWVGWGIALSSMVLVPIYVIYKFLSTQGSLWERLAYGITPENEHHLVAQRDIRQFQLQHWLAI

Structure (SMILES)	Transcript for the capsule genes from each of the two major promoters (capsule genes of UPEC)	solubility ([1]; Luria-Bertani broth (primary assay media), plasma or biological fluid, Luria-Bertani broth, read-out: Assay Media Solubility)	solubility ([1]; phosphate buffered saline (PBS), 23 °C, pH 7.4, aqueous buffer, 1x PBS, pH 7.4, room temperature, read-out: Aqueous Solubility)	Aqueous stability [2]	Emergence of spontaneous resistance in the laboratory (UPEC)	Hepatic Microsome Stability, % remaining at 1 hr [3] [% remaining]	Plasma Stability, % remaining at 3 hr (Plasma stability, human) [% remaining]	Sensitivity of UTI89 to pooled human serum (MTT) (E. coli UTI89)	Bacterial capsule-dependent orcinol stain, % of the control sample (K1 capsule of UTI89) [%]	Reduction of orcinol-reactive polysaccharides on surface of bacteria (K1 capsule of UTI89; 100 μM, K1 strain UTI89) [%]	Orcinol assay, % of control value (K1 capsule of UTI89; synthesized sample, SID 126497311)	Hepatic Microsome Stability, % remaining at 1 hr [4] [% remaining]	% Inh. [5] [%]	% Inh. (panel of 68 receptors) [%]
CCOc1ccc(-c2cc(NC(=O)c3c(F)cccc3F)c(C(=O)O)s2)cc1 [ML317, 3-(2,6-difluorobenzamido)-5-(4-ethoxyphenyl)thiophene-2-carboxylic acid]	significantly reduced transcript	68 µg/mL and 169 µM	92.6 µg/mL and 230 µM	stable	has not resulted in the emergence of spontaneous resistance	74.3	95.3	further increased serum-mediated killing; also recorded: significantly more sensitive	21	~80	Orcinol assay 21%	89.6		
CCOc1ccc(-c2cc(NC(=O)c3c(F)cccc3F)c(C(=O)O)s2)cc1 [KUC107784N-02]													13	5

Source: patent US9688653B2, “Ethoxyphenyl thienyl compounds and methods for the treatment of bacterial infections” (Duke University, priority 2013, dated 2017)
